Test results: patent US20140220134A1, “METHOD FOR TREATING DIABETES WITH EXTENDED RELEASE FORMULATION OF GLP-1 RECEPTOR AGONISTS” (Astrazeneca Pharamceuticals LP, priority 2011, published 2014)
Where a name gives a salt, the structure may show the parent alone.

Columns and labels:
[1] = Fraction of drug in microparticles and in MCT oil carrier after storage; type: physicochemical
Excerpt: Mixtures ranged from 2% to 10% w/w of the active pharmaceutical ingredient. The mixed powder was transferred to an extruder where the temperature was adjusted according to the chosen polymer. Some polymers needed higher temperatures to produce a melt with good flow properties. The extruder contained twin screws that moved clockwise to produce efficient mixing. The material was extruded through a 1.5 mm orifice, collected, cooled at room temperature, and cut into short strands about 1-2 inches long. These strands were then fed into a 12-tooth rotor mill, followed by a sieving step to produce microparticles of about 20 to 100 microns. The microparticles were collected and stored at 5° C. until further use.
Experimental samples were prepared by dispersing about 50 mg of the microparticles into 0.75 mL of a MCT oil carrier. The samples were stored at 5° C. and 25° C. for two days, two weeks, or one month, at which times representative samples were tested. The fraction of drug that remained in the microparticles and the fraction of drug that partitioned into the MCT oil carrier were determined. Briefly, the samples were centrifuged to separate the microparticles from the MCT oil carrier. Each portion was treated independently to determine the amount of drug it contained. Results are reported on the basis of the percent residing in each independent portion.

Solubility in MCT oil = type: physicochemical; settings: oil or lipid
[2] = PLGA copolymer, 1 Month Storage at 5° C.
[3] = PLGA copolymer, 1 Month Storage at 25° C.
[4] = PLGA copolymer, 2 Days Storage at 5° C.
[5] = PLGA copolymer, 2 Days Storage at 25° C.
[6] = polycaprolactone/PLGA copolymer, Two Weeks Storage, 5° C.
[7] = polycaprolactone/PLGA copolymer, Two Weeks Storage, 25° C.

Compound: CN(C)c1ccc(O)c2c1C[C@H]1C[C@H]3[C@H](N(C)C)C(O)=C(C(N)=O)C(=O)[C@@]3(O)C(O)=C1C2=O [minocycline, minocycline HCl]
- drug in MCT Carrier [1, 2]: 0.1%
- drug in Microparticles [1, 2]: 99.9%
- drug in MCT Carrier [1, 3]: 0.4%
- drug in Microparticles [1, 3]: 99.6%
- drug in MCT Carrier [1, 4]: 0.9%
- drug in Microparticles [1, 4]: 99.1%
- drug in MCT Carrier [1, 5]: 0.6%
- drug in Microparticles [1, 5]: 99.4%

Compound: CC[C@H](C)[C@H](NC(=O)[C@@H]1CCCN1C(=O)CNC(=O)[C@H](Cc1ccccc1)NC(=O)[C@H](CC(N)=O)NC(=O)[C@H](CC(N)=O)NC(=O)[C@H](CO)NC(=O)[C@H](CO)NC(=O)[C@H](Cc1c[nH]cn1)NC(=O)[C@@H](NC(=O)[C@H](CC(C)C)NC(=O)[C@H](Cc1ccccc1)NC(=O)[C@H](CC(N)=O)NC(=O)[C@H](C)NC(=O)[C@H](CC(C)C)NC(=O)[C@H](CCCNC(=N)N)NC(=O)[C@H](CCC(N)=O)NC(=O)[C@@H](NC(=O)[C@H](C)NC(=O)[C@@H]1CSSC[C@H](NC(=O)[C@@H](N)CCCCN)C(=O)N[C@@H](CC(N)=O)C(=O)N[C@@H]([C@@H](C)O)C(=O)N[C@@H](C)C(=O)N[C@@H]([C@@H](C)O)C(=O)N1)[C@@H](C)O)C(C)C)C(=O)N[C@@H](CC(C)C)C(=O)N1CCC[C@H]1C(=O)N1CCC[C@H]1C(=O)N[C@H](C(=O)N[C@@H](CC(N)=O)C(=O)N[C@H](C(=O)NCC(=O)N[C@@H](CO)C(=O)N[C@@H](CC(N)=O)C(=O)N[C@H](C(=O)N[C@@H](Cc1ccc(O)cc1)C(N)=O)[C@@H](C)O)C(C)C)[C@@H](C)O [pramlintide]
- drug in MCT Carrier [1, 2]: 0.3%
- drug in Microparticles [1, 2]: 99.7%
- drug in MCT Carrier [1, 3]: 0.0%
- drug in Microparticles [1, 3]: 100.0%
- drug in MCT Carrier [1, 4]: 0.0%
- drug in Microparticles [1, 4]: 100.0%
- drug in MCT Carrier [1, 5]: 0.0%
- drug in Microparticles [1, 5]: 100.0%
- drug in MCT Carrier [1, 6]: 0.0%
- drug in Microparticles [1, 6]: 100.0%
- drug in MCT Carrier [1, 7]: 0.0%
- drug in Microparticles [1, 7]: 100.0%

Compound: O=C(O)c1ccccc1O [salicylic acid]
- drug in MCT Carrier [1, 2]: 0.1%
- drug in Microparticles [1, 2]: 99.9%
- drug in MCT Carrier [1, 3]: 0.2%
- drug in Microparticles [1, 3]: 99.8%
- drug in MCT Carrier [1, 4]: 1.1%
- drug in Microparticles [1, 4]: 98.9%
- drug in MCT Carrier [1, 5]: 0.9%
- drug in Microparticles [1, 5]: 99.1%
- solubility (Solubility in MCT oil): > 30 mg/mL

Compound: O=C([O-])c1ccccc1O.[Na+] [sodium salicylate]
- drug in MCT Carrier [1, 2]: 1.3%
- drug in Microparticles [1, 2]: 98.7%
- drug in MCT Carrier [1, 3]: 1.5%
- drug in Microparticles [1, 3]: 98.5%
- drug in MCT Carrier [1, 4]: 0.5%
- drug in Microparticles [1, 4]: 99.5%
- drug in MCT Carrier [1, 5]: 2.3%
- drug in Microparticles [1, 5]: 97.7%

Compound: bovine serum albumin
- drug in MCT Carrier [1, 2]: 0.0%
- drug in Microparticles [1, 2]: 100.0%
- drug in MCT Carrier [1, 3]: 0.0%
- drug in Microparticles [1, 3]: 100.0%
- drug in MCT Carrier [1, 4]: 0.0%
- drug in Microparticles [1, 4]: 100.0%
- drug in MCT Carrier [1, 5]: 0.0%
- drug in Microparticles [1, 5]: 100.0%

Compound: davalintide
- drug in MCT Carrier [1, 2]: 0.6%
- drug in Microparticles [1, 2]: 99.4%
- drug in MCT Carrier [1, 3]: 0.0%
- drug in Microparticles [1, 3]: 100.0%
- drug in MCT Carrier [1, 4]: 0.2%
- drug in Microparticles [1, 4]: 99.8%
- drug in MCT Carrier [1, 5]: 0.0%
- drug in Microparticles [1, 5]: 100.0%

Compound: insulin
- drug in MCT Carrier [1, 2]: 0.5%
- drug in Microparticles [1, 2]: 99.5%
- drug in MCT Carrier [1, 3]: 0.7%

Compound: metreleptin
- drug in MCT Carrier [1, 2]: 0.0%
- drug in Microparticles [1, 2]: 100.0%
- drug in MCT Carrier [1, 3]: 0.0%
- drug in Microparticles [1, 3]: 100.0%
- drug in MCT Carrier [1, 4]: 0.0%
- drug in Microparticles [1, 4]: 100.0%
- drug in MCT Carrier [1, 5]: 0.0%
- drug in Microparticles [1, 5]: 100.0%
